These results are taken from PMC8430952 (International Journal of Molecular Sciences, 2021).

Substitutions are numbered along the chain they refer to. No end group written: not given here.

Assay [1] addresses T1, ATAD2 bromodomain (BRD), residues 981–1108 (Homo sapiens, UniProt Q6PL18).
T1 construct: Residues 981–1108 encoding the 128 amino acid ATAD2 BRD were PCR amplified; GST (with PreScission Protease site) (N, cleaved yes); made in house; host or cells: E. coli Rosetta 2(DE3) pLysS (non-codon-optimized) or BL21(DE3) pLysS (codon-optimized)
T1 sequence (Q6PL18 981-1108): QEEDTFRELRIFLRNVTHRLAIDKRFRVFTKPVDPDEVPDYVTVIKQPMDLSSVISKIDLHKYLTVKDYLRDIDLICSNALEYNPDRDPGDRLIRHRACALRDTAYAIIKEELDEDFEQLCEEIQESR
The experiment in a line: ITC of histone peptides with the wild-type ATAD2 bromodomain. Conditions: for N-Value (stoichiometry of binding, peptide-to-bromodomain ratio) / ATAD2 BRD KD: ITC, 5 °C; for N-Value (stoichiometry of binding, peptide-to-bromodomain ratio): ATAD2 BRD (residues 981–1108, wild type), one set of sites model; for Kd: SD; for ATAD2 BRD KD: 150 mM NaH2PO4 and 150 mM NaCl, 5 mM peptide titrated into 0.2 mM ATAD2 BRD (residues 981–1108, wild type), 1:1 binding model, mean ± SD of three runs, no binding repeated in duplicate. The class given is binding. The procedure:
(§1) Purified protein was concentrated to a volume of 3 mL and dialyzed into ITC buffer (150 mM NaH2PO4 and 150 mM NaCl) for 48 h. ITC experiments with histone peptides were carried out at 5 °C using a MicroCal iTC200 (Malvern Panalytical, Westborough, MA, USA). […] The stirring speed was set at 750 RPM. After excluding the first injection, the ITC binding isotherms were integrated using a Marquandt nonlinear least-squares analysis according to a 1:1 binding model assuming a single set of identical binding sites with the Origin 7.0 program (OrginLab Corporation, Northampton, MA, USA). The raw data were corrected for non-specific heats of dilution determined by the magnitude of the peaks appearing after the system reaches complete saturation. The obtained heats of dilution were analyzed according to a one set of sites binding model and used to calculate binding affinities, N values, and thermodynamic values. […] The mean Kd was calculated from the average of the three runs, and the standard deviation was calculated from the mean.

Assay [2] addresses T2, ATAD2 BRD mutant N1064A (Homo sapiens, UniProt Q6PL18, N1064A).
T2 construct: ATAD2 (residues 981–1108) with a N1064A/I1074A/I1074Y mutation; GST (with PreScission Protease site) (N, cleaved yes); made in house; host or cells: E. coli
T2 sequence (Q6PL18 981-1108 N1064A): T1 sequence (Q6PL18 981-1108) with N84A
The experiment in a line: ITC of histone peptides with the ATAD2 bromodomain mutant N1064A. The class given is binding. The conditions noted are these: ATAD2 (residues 981–1108) N1064A mutant bromodomain. The protocol: as §1

The target in assay [3] is T3, ATAD2 BRD mutant I1074A (Homo sapiens, UniProt Q6PL18, I1074A).
T3 construct: ATAD2 (residues 981–1108) with a N1064A/I1074A/I1074Y mutation; GST (with PreScission Protease site) (N, cleaved yes); made in house; host or cells: E. coli
T3 sequence (Q6PL18 981-1108 I1074A): T1 sequence (Q6PL18 981-1108) with I94A
Description: ITC of histone peptides with the ATAD2 bromodomain mutant I1074A. In kind it is binding. Conditions: ATAD2 (residues 981–1108) I1074A mutant bromodomain. The protocol: as §1

Assay [4] has as its target T4, ATAD2 BRD mutant I1074Y (Homo sapiens, UniProt Q6PL18, I1074Y).
T4 construct: ATAD2 (residues 981–1108) with a N1064A/I1074A/I1074Y mutation; GST (with PreScission Protease site) (N, cleaved yes); made in house; host or cells: E. coli
T4 sequence (Q6PL18 981-1108 I1074Y): T1 sequence (Q6PL18 981-1108) with I94Y
Description: ITC of histone peptides with the ATAD2 bromodomain mutant I1074Y. In kind it is binding. Conditions: ATAD2 (residues 981–1108) I1074Y mutant bromodomain. The protocol:
as §1

The target of assay [5] is histone H4K5ac (Homo sapiens) (UniProt P62805). The experiment in a line: ITC. The conditions noted are these: cited from earlier work.
Assay [6] has as its target histone H4K8ac (Homo sapiens) (UniProt P62805). The experiment in a line: ITC. The conditions noted are these: cited from earlier work.
Assay [7] addresses T5, ATAD2 bromodomain (residues 966–1112, C1101A) (Homo sapiens, UniProt Q6PL18, C1101A).
T5 construct: GST (with PreScission protease cleavage site) (N, cleaved yes); made in house; host or cells: E. coli BL21(DE3) pLysS
T5 sequence (Q6PL18 966-1112 C1101A): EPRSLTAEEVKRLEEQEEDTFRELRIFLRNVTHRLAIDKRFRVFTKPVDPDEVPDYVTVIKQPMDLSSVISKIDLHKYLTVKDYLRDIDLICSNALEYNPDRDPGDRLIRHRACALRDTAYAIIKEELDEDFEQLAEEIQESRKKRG
Description: ITC of histone H4 peptides with the longer ATAD2 bromodomain construct. The class given is binding. Conditions: for N-Value (stoichiometry of binding): ITC, 5 °C, ATAD2 bromodomain residues 966–1112, C1101A; for Kd: SD, read-out: KD from ITC. The procedure:
as §1

Assay [8] addresses T6, histone H4K5acK8ac 1-10 (Homo sapiens, UniProt P62805).
T6 chain: MSGRGK(Ac)GGK(Ac)G
Description: ITC. In general terms: Isothermal titration calorimetry measures the heat released or taken up as one component is titrated into another.

For assay [9], the target named is T7, histone H4K12ac 4-17 (Homo sapiens, UniProt P62805).
T7 chain: RGKGGKGLGK(Ac)GGAK
The experiment in a line: ITC.

As to `CC(=O)NCCCC[C@H](NC(=O)CNC(=O)CN)C(=O)NCC(=O)N[C@@H](CC(C)C)C(=O)NCC(=O)N[C@@H](CCCCNC(C)=O)C(=O)NCC(=O)NCC(=O)N[C@@H](C)C(N)=O` [H4K8acK12ac (res 6–15)], in assay [1], the “N-Value (stoichiometry of binding, peptide-to-bromodomain ratio)” value stood at 1.169 and binding was put at a Kd of 392 ± 19.5 µM.

Regarding `CC(=O)NCCCC[C@H](NC(=O)CNC(=O)[C@H](CC(C)C)NC(=O)CNC(=O)[C@H](CCCCN)NC(=O)CNC(=O)CNC(=O)[C@H](CCCCN)NC(=O)CN)C(=O)NCC(=O)NCC(=O)N[C@@H](C)C(=O)N[C@@H](CCCCN)C(=O)N[C@@H](CCCNC(=N)N)C(N)=O` [H4K12ac (res 4–17)], in assay [1], the “N-Value (stoichiometry of binding, peptide-to-bromodomain ratio)” value is recorded as 1.170. In addition, binding in assay [1] was characterised by a dissociation constant (Kd) of 95.1 ± 13.1 µM. Also, the KD result in assay [2], in assay [3] and in assay [4] was “No binding” throughout.

For the molecule “ARTKQTARKSTG [H3 unmodified (res 1–12), unmodified histone H3 tail peptide, residues 1–12]”, in [1], the “ATAD2 BRD KD” value was “No Binding”.

For the molecule “ARTKQTARKacSTG [H3K9ac (res 1–12), histone H3 tail peptide, residues 1–12, acetylated at K9]”, the “ATAD2 BRD KD” value in assay [1] is “No Binding”.

Consider ATAD2 bromodomain (from UniProt Q6PL18), for which the Kd in assay [5] is 44.5 µM; in assay [6], 1130 µM.

In the case of “GKGGKGLGKGGAKR [H4 unmodified (res 4–17), unmodified histone H4 tail peptide, residues 4–17; free N-terminus, amidated C-terminus]”, the “ATAD2 BRD KD” value in [1] is “No Binding”.

As for “GKGGKacGLGKGGAKR [H4K8ac (res 4–17), histone H4 tail peptide, residues 4–17, acetylated at K8]”, the “ATAD2 BRD KD” value in assay [1] is “No Binding”; in [1] (listed as H5K8ac (4–17)) it was “complete lack of binding”.

Regarding “GKacGGKGLGKGGAKR [H4K5ac (res 4–17), histone H4 tail peptide, residues 4–17, acetylated at K5]”, the figures for the “ATAD2 BRD KD” value in assay [1] and in [1] (listed as H4K5ac (4–17)) were “No Binding” and “complete lack of binding”, respectively.

As to “LGK(Ac)GGAK(Ac)RHRK-NH2 [H4K12acK16ac (res 10–20)]”, in [1], the “N-Value (stoichiometry of binding, peptide-to-bromodomain ratio)” value is 1.082 and the Kd stood at 303 ± 18.7 µM.

Regarding “LGKGGAKacRHRK [H4K16ac (res 10–20), histone H4 tail peptide, residues 10–20, acetylated at K16]”, the “ATAD2 BRD KD” value in assay [1] is on record as “No Binding”.

In the case of “RKSTGGKAPRKacQ [H3K18ac (res 8–19), histone H3 tail peptide, residues 8–19, acetylated at K18]”, the “ATAD2 BRD KD” value in [1] is recorded as “No Binding”.

With “RKSTGGKacAPRKQ [H3K14ac (res 8–19), histone H3 tail peptide, residues 8–19, acetylated at K14]”, the “ATAD2 BRD KD” value in [1] was “No Binding”; in assay [1] (listed as H3K14ac) it was “did not observe any binding”.

Turning to “SGRGK(Ac)GGK(Ac)GL-NH2 [H4K5acK8ac (res 1–10)]”, the “N-Value (stoichiometry of binding, peptide-to-bromodomain ratio)” value in assay [1] amounted to 0.938. The dissociation constant Kd turned out to be 33.2 ± 5.9 µM in [1] and 15.9 ± 2.5 µM in [7]. The “N-Value (stoichiometry of binding)” value in assay [7] is listed as 0.974. Further, the KD result in assay [2], in assay [3] and in assay [4] was “No binding” each time.

On to SGRGK(Ac)GGKGL-NH2 [H4K5ac (res 1–10)], for which, in assay [1], the “N-Value (stoichiometry of binding, peptide-to-bromodomain ratio)” value is reported as 1.070 and the Kd stood at 44.5 ± 3.3 µM. Besides, in assay [7], the “N-Value (stoichiometry of binding)” value was found to be 1.021 and the dissociation constant (Kd) stood at 10.1 ± 1.3 µM.

“SGRGK(Ac)QGGKARA-NH2 [H2AK5ac (res 1–12)]”: in [1], the “N-Value (stoichiometry of binding, peptide-to-bromodomain ratio)” value was determined as 0.997 and binding was characterised by a dissociation constant (Kd) of 38.9 ± 5.9 µM.

SGRGKGGK(Ac)GL-NH2 [H4K8ac (res 1–10)]: in assay [1], the “N-Value (stoichiometry of binding, peptide-to-bromodomain ratio)” value is recorded as 1.144 and binding was put at a Kd of 1130 ± 122 µM.

B1: ATAD2 bromodomain (protein)
chain: RLEEQEEDTFRELRIFLRNVTHRLAIDKRFRVFTKPVDPDEVPDYVTVIKQPMDLSSVISKIDLHKYLTVKDYLRDIDLICSNALEYNPDRDPGDRLIRHRACALRDTAYAIIKEELDE
For B1, the Kd in [8] stood at 33.2 µM; in assay [9], 95.1 µM.

Usually Kd stands for the concentration at which binding is half-saturated.
